One test has as its target T1, PRL-1 (Homo sapiens, UniProt Q93096).
T1 sequence (Q93096 1-173): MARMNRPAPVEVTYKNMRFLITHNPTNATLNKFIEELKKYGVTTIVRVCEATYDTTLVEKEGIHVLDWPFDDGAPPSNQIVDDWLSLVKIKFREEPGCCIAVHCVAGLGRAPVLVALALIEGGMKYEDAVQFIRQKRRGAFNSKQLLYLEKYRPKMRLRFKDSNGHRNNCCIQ
Description: in vitro PRL-1 phosphatase enzymatic assay (tyrosine phosphatase / DiFMUP assay). The settings on record: for INHIBITION % (PRL-1 inhibitory activity): UA Natural Products Library hits; for inhibitory activity against PRL-1: Promega tyrosine phosphatase assay system, TNT-expressed His-tagged PRL-1 (FIG. 7C). On the set-up: INHIBITION % (PRL-1 inhibitory activity): concentration or dose not given beside the values. Type of test: biochemical. From the text:
Assays that measure the removal of phosphates from proteins or peptides containing phosphotyrosine may also be employed in the present invention. One method of screening for drug targets would involve measuring inhibition of PRL-1-mediated tyrosine dephosphorylation. This assay detects the amount of free […] generated in a reaction by measuring the absorbance of a molybdate:malachite green:phosphate complex. This assay detects the activity of protein tyrosine phosphatases. Such assays or systems are commercially available from suppliers such as Promega (Madison, Wis.) or Applied Biosystems (Foster City, Calif.).
Another assay employed in the present invention is an improved method for measuring protein phosphatases for high-throughput screening involving 6,8-difluoro-4-methylumbelliferyl phosphate (DiFMUP). DiFMUP can assay both acid and alkaline phosphatase activity. […] The lower pka of its hydrolysis product makes DiFMUP a sensitive substrate for acid phosphatases, which is not possible with MUP because its fluorescence must be measured at alkaline pH. Furthermore, with its high quantum yield, DiFMUP increases the sensitivity of both acid and alkaline phosphatase measurements. […] DiFMUP enables the quantitation of as little as 1.0 pg/ml alkaline phosphatase.
For example, in the present invention, a bacterial expression system may be employed (i.e., pProEx vector) from which recombinant His-tagged PRl-1 protein may be obtained and purified using a column (i.e., a nickel column). The PRl-1 enzymatic activity in the presence of a drug compound of interest and in combination with DiFMUP substrate may be incubated (about 1 h) and the dephosphorylated substrate detected.
To produce PRL-1 protein for in vitro phosphatase assays, the PRL-1 gene was cloned into an expression vector with a His tag (pcDNA™ 3.1 from Invitrogen) and the protein expressed in vitro using the TNT coupled transcription and translation kit (Promega). […] The molecular weight of this PRL-1 protein (22KDa) is exactly the same as reported in the literature. An in vitro phosphatase assay was conducted using a tyrosine phosphatase assay system (Promega) to confirm the dephosphorylation activity of the recombinant PRL-1 protein.
This assay was optimized and used to screen various compound libraries for PRL-1 inhibitors. […] Compounds identified using the DiFMUP in vitro assay to screen compounds from the Nanosyn Combichem library and the NCI database include NS19999, NS45609, NS45336, and NCI668394 respectively.
The inventors first cloned the full length open reading frame of PRL-1 to the bacteria expression vector pProEx-HTa (Invitrogen) under the control of an IPTG inducible promoter. A six-histidine tag was added to the C-terminus of PRL-1 for quick purification of PRL-1 using the Ni-NTA system. The expression vector was transformed to bacteria strain BL21 and checked for PRL-1 expression using Western blot. For large scale expression, bacteria were grown in 500 ml LB media to logarithm phase (OD600 between 0.5 to 0.9) and induced to express PRL-1 by adding IPTG to final concentration of 1 mM and incubating for 4 hours. Bacteria were harvested by centrifugation at 5,000 rpm for 5 min and resuspended in the Native Binding Buffer (50 mM NaPO4, 0.5M NaCl, pH8.0, and 10 mM imidazole) at 16 ml/100 ml culture. The bacteria cells were then lysated by adding lmg/ml lysozyme and sonication. The cell lysate was centrifuged at 3,000 g for 15 min and the supernatant were then transferred to a 10-ml column pre-packed with 1.5 ml of Ni-NTA resin (Invitrogen). The column was gently agitated for 60 min to allow the binding of the His-tagged PRL-1 to the resin. After the binding reaction, the column was washed with the Native Wash Buffer (50 mM NaPO4, 0.5M NaCl, pH 8.0, and 20 mM imidazole) for 4 times. Finally, the PRL-1 protein was eluted off the column with 10 ml of Native Elution Buffer (50 mM NaPO4, 0.5 M NaCl, pH 8.0, and 250 mM imidazole). […]

A further test concerns Mia PaCa-2 cells. The test is described as follows: cell proliferation assay in Mia PaCa-2 pancreatic cancer cells. The settings on record: Homo sapiens. Type of test: cell-based. As to the method:
FIGS. 13A-13C. Inhibition of cell proliferation by PRL-1 inhibitors using a SRB staining assay. FIG.13A—Inhibition of MiaPaCa-2 cell growth by UA668394. Cells were exposed to different doses of UA668394 (0.2 μM to 200 μM) for four days by SRB (Sulforhodamine B) staining. […] FIG. 13B—Inhibition of cell proliferation in pancreatic cancer cells Panc-1 and Mia PaCa-2 by the compound UA66839-1 analog. FIG. 13C—Inhibition of cell proliferation in pancreatic cancer cells Panc-l and Mia PaCa-2 by the compound UA668394-2 analog.
Cell Proliferation Assays. Cell proliferation assays with these cell lines are performed to determine the effect of target inhibition on cell growth. Cells are seeded at 2.0-5.0×10^5 cells in 100-mm culture dishes and allow to attach overnight at 37° C. Adherent cells are washed and incubated with serum-free RPMI 1640 or RPMI containing 10% FBS for 48 h, after which they are trypsinized and counted using a hemocytometer. In addition, parallel experiments are perform and instead of cell counts, the proliferative status of the cell lines is determined using flow cytometric analysis of DNA content. For flow analysis, cells are stained with propidium iodide using a modified Krishan technique (Krishan, 1975). All samples are analyze with an FACSCAN flow cytometer (Becton Dickinson) using a 15 mWatt argon ion laser operated at 6 mWatts of power at 488 nm. Photomultiplier tube voltage is adjusted for each control sample to position the G0/G1 to channel 240 on a 1024 channel presentation. Histograms are analyze for cell cycle compartments using CELLQUEST (Becton Dickinson) analysis software. Histograms having 50K events are collected to maximize the statistical validity of the compartmental analysis. The results of this flow analysis allow the examination of the cell cycle distribution of the pancreatic cancer cell lines.
UA668394 was previously identified as a PRL-1 phosphatase inhibitor (IC50=7 μM) using high throughout library screening.
Compounds identified as being positive for anti-PRL-1 activity were tested for their ability to inhibit cell proliferation in human pancreatic cancer cells. The inhibitory activity of UA668394, UA19999 and UA45336 (Table 5) were examined. Cell proliferation assays were conducted using the pancreatic cancer cell line Mia PaCa-2, as described in Example 1. Briefly, 2.0-5.0×10^5 cells were seeded in 100-mm culture dishes and allowed to attach overnight at 37° C. Adherent cells were washed and incubated with serum-free RPMI 1640 or RPMI containing 10% FBS for 48 h, and treated with the compound of interest to determine its effect on the inhibition of cell growth. For example, cells were treated with of the UA668394, UA19999 and UA45336 compounds and analyzed for inhibition of cell proliferative using a MTS assay.

[1] abbreviates: MIA PaCa-2, MTS cell proliferation assay, read-out: IC50, inhibition of cell proliferation in Mia PaCa-2 cells.
The mark [2] stands for this setting: PRL-1 inhibitors identified by library screening, read-out: IC50.

pIC50: −log10 of the molar value. “And” between values parts separate entries of the source, which are not always exact repeats. Identical values can stand only once. Like-named read-outs stand apart in the source and are kept apart here.

In the case of `N#CC1=C(N)NC(=S)C(C(N)=O)C1c1ccccc1F` (centres unmarked) [UA64859], the “INHIBITION % (PRL-1 inhibitory activity)” value at PRL-1 is 76%.

With `C=[N+](OC)c1nn(CC(=O)Nc2sc(C)c(C)c2C(N)=O)c(C)c1Br` [UA47548], the “INHIBITION % (PRL-1 inhibitory activity)” value on PRL-1 amounted to 70%.

Regarding `O=C1C=C(NCCc2cc(Br)c(O)c(Br)c2)C(=O)c2ncccc21` [UA668394], the pIC50 was 5.92 in the test on Mia PaCa-2 cells (MIA PaCa-2, 96 h, SRB staining, four days exposure, 0.2 μM to 200 μM (FIG. 13A legend), read-out: estimated IC50, inhibition of MiaPaCa-2 cell growth); 5.92 with Mia PaCa-2 cells (setting [1]); 5.15 and 5.14 at PRL-1 (setting [2]).

On to `CC(=O)Oc1cc(OC(C)=O)c2c(c1)OC(=O)C(Cl)C2C` (centres unmarked) [UA14798], for which the pIC50 at PRL-1 (setting [2]) was 4.19.

For the molecule `O=C(O)c1ccc2c(c1)C(=O)N(c1cccc3ccccc13)C2=O` [UA13464], the pIC50 at PRL-1 (setting [2]) was 4.14.

Turning to `Nc1cc(S(=O)(=O)C(F)(F)F)ccc1C(=O)O` [UA12882, 2-Amino-4-trifluoromethanesulfonyl-benzoic acid], on PRL-1 (setting [2]), the pIC50 was 4.60.

As for `O=C1C(O)=C([N+](=O)[O-])C(=O)c2ccccc21` [UA45609], the pIC50 on PRL-1 (setting [2]) is 4.77.

On to `[Na+].[Na+].[Na+].[O]=[V]([O-])([O-])[O-]` [sodium orthovanadate, reference compound], for which the “inhibitory activity against PRL-1” value on PRL-1 was “some inhibitory activity”.

For the molecule `C=CCn1c(SCC(=O)O)nnc1-c1ccc([N+](=O)[O-])cc1` [UA58428], at PRL-1, the “INHIBITION % (PRL-1 inhibitory activity)” value turned out to be 42%.

As to `CN1C(=O)C(=O)c2cc([N+](=O)[O-])ccc21` [UA19999], the results for the pIC50 in the test with Mia PaCa-2 cells (setting [1]) and at PRL-1 (setting [2]) were 3.92 and 4.48, respectively.

As to `O=C1C=Cc2cc(Br)ccc2C1=O` [UA13082], the pIC50 on PRL-1 (setting [2]) was 5.06.

`Brc1cccc(C2=NC(c3ccccc3)=C3C=CC=CN3C2)c1` [UA21497]: at PRL-1 (setting [2]), the pIC50 is 7.00.

For `COC(=O)c1nc(O)c2ccccc2c1O` [UA45336], the values for the pIC50 in the test with Mia PaCa-2 cells (setting [1]) and on PRL-1 (setting [2]) were 4.02 and 4.90, respectively.

As to `CCC1=NN(c2ccccc2)C(=O)C(CC(=O)Nc2ccccc2)c2cc(OC)c(OC)cc21` (centres unmarked) [UA12812], the pIC50 on PRL-1 (setting [2]) is 4.18.

As for `C=Cc1ccc2c3c(ccc(C=O)c13)C(Cl)=CC2=O` [UA61880], the “INHIBITION % (PRL-1 inhibitory activity)” value at PRL-1 was determined as 50%.

In the case of `O=C(O)CN(CCN(CC(=O)O)CC(=O)O)CC(=O)O` [EDTA, reference compound], the “inhibitory activity against PRL-1” value on PRL-1 is on record as “some inhibitory activity”.

As to `COc1ccccc1C=C1C(=O)NC(=O)NC1=O` [UA12499], the pIC50 at PRL-1 (IC50, PRL-1 inhibitors identified by library screening) was 4.44.

For `NC(=O)c1cc2ccc(O)cc2oc1=O` [UA63415], the “INHIBITION % (PRL-1 inhibitory activity)” value on PRL-1 amounted to 62%.

In the case of `COc1cc(NCCC(C)=O)c2ncccc2c1` [UA292O9], the pIC50 on PRL-1 (setting [2]) was 4.39.

(Values after patent US20070026398A1, “Protein tyrosine phosphatase-prl-1 a a marker and therapeutic target for pancreatic cancer” (priority 2003, published 2007).)
